{
  "source": "paper PMC5454592",
  "about": "“Pharmacological and Toxicological Properties of the Potent Oral γ-Secretase Modulator BPN-15606” (The Journal of Pharmacology and Experimental Therapeutics, 2017)",
  "key": {"[1]": {"assay": "PK in rat (i.v./po)", "format": "in vivo", "settings": "male, plasma, Sprague–Dawley rats, 5 mg/kg po vs 1 mg/kg i.v.", "protocol": "(§1) Male CD-1 mice and male Sprague–Dawley rats were administered a single dose of BPN-15606 by i.v. or oral gavage (po) dose routes to assess oral bioavailability. Mice and rats received BPN-15606 as a single i.v. dose at 1 mg/kg (n = 5) or a single po dose at 5 mg/kg (n = 5). Blood was collected from mice and rats at 5 (i.v. only), 15, and 30 minutes, and 1, 2, 4, 8, and 12 hours postdose for processing to plasma. For mice, brains were collected from both dose groups (i.v. and po) at 1, 4, 8, and 12 hours postdose. For rats, brains were collected from those same animals at the 12-hour time point only. […]\n(§2) Data were subjected to noncompartmental analysis using WinNonlin Phoenix Model 200 (for extravascular administration) or Model 201 (for i.v. bolus administration) and the sparse sampling feature; a uniform weighting factor was applied to each data set. Time to maximum plasma concentration (Tmax) and maximum plasma concentration (Cmax) values were determined directly from the data. Area under the plasma concentration–time curve to the last time point (AUClast) values were calculated using the log/linear trapezoidal (i.v. dose) or linear up/log down trapezoidal (po dose). Values were calculated using the plasma data from composite groups. […] The volume of distribution at steady state and clearance were calculated using the i.v. group data. […]"}, "[2]": {"assay": "PK in mouse (i.v./po)", "format": "in vivo", "settings": "male, plasma, CD-1 mice, 5 mg/kg po vs 1 mg/kg i.v.", "protocol": "as §1, §2"}},
  "data": [
    {"smiles": "COc1nc(-c2cc(C)c(N[C@@H](C)c3ccc(F)cc3)nn2)ccc1-n1cnc(C)c1", "note": "[BPN-15606, (S)-N-(1-(4-fluorophenyl)ethyl)-6-(6-methoxy-5-(4-methyl-1H-imidazol-1-yl)pyridin-2-yl)-4-methylpyridazin-3-amine]", "values": [
      {"measurement": "bioavailability", "setting": "[1]", "result": "> 60", "unit": "%"},
      {"measurement": "bioavailability", "setting": "[2]", "result": "> 60", "unit": "%"}
    ]}
  ]
}
